*1 amine or outer side, *2 acyl side, *3 side chain or, on linkers, in order; H or OH if unused. Where a SMILES comes first, the peptide text is derived from it. Side-chain parts run from the residue outwards. [ ]: non-standard residue; d: D form. The star is where a group is joined. PEG12 = NCCOCCOCCOCCOCCOCCOCCOCCOCCOCCOCCOCCOCCC(=O)O; γGlu = O=C(O)[C@H](CCC(=O)[*:2])N[*:1]; 1Nal = N[C@@H](Cc1cccc2ccccc12)C(=O)O; Stearoyl = CCCCCCCCCCCCCCCCCC(=O)*; Palmitoyl = CCCCCCCCCCCCCCCC(=O)*; Nle = CCCC[C@H](N)C(=O)O; Aib = CC(C)(N)C(=O)O
Molecular target: T1, RXFP1 (Homo sapiens, UniProt Q9HBX9)
T1 construct: OVCAR5 cells expressing endogenous RXFP1; endogenous in cells; host or cells: OVCAR5 cells
T1 sequence (Q9HBX9 1-757): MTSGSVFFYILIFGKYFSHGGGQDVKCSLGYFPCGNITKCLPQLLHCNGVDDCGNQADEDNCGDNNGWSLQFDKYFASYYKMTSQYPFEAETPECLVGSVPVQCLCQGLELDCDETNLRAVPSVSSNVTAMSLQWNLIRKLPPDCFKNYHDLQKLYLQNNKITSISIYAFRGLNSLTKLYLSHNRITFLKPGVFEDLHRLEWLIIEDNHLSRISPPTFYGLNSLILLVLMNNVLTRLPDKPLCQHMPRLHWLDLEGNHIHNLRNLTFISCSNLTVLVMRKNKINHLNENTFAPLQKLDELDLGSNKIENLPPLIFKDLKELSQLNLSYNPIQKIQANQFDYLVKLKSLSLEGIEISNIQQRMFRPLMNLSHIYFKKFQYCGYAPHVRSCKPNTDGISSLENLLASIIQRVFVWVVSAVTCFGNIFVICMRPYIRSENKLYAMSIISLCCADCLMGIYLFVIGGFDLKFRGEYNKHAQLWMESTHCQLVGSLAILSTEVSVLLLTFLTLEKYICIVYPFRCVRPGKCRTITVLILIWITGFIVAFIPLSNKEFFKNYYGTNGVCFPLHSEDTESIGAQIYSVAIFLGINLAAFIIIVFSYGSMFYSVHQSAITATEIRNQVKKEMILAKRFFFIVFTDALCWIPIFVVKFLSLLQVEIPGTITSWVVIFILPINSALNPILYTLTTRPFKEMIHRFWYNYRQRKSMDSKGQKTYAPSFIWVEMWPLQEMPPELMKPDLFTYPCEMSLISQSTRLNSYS
Assay: OVCAR5 cAMP assay (HTRF), RXFP1 agonist activity
Assay type: cell-based
Settings: for Emax: OVCAR-5, maximal cAMP relative to H2-relaxin maximum (100%), read-out: EMax, OVCAR 5 cells (cAMP); for EC50: OVCAR5 cells, cAMP HTRF, read-out: EC50 (nM), OVCAR 5 cells (cAMP)
Text: OVCAR5 cells expressing endogenous RXFP1 were used to test RXP1 agonist properties of peptides of the invention, and in particular of the peptides of sequence SEQ ID NO: 1-193.
Since RXFP1 is a Gs coupled GPCR, cAMP was used as readout of RXFP1 activation.
Isobutyl Methyl Xanthine (IBMX) was used to inhibit phosphodiesterase activity facilitating cAMP measurements. HTRF (Homogenous Time Resolved Fluorescence) technology was used to detect cAMP due to its great sensitivity.
In summary, OVCAR5 were grown in regular medium (RPMI) containing 10% fetal calf serum (FCS) and 1% antibiotics (penicillin/streptomycin).
Before the experiments, cells were detached with accutase and incubated for 40 minutes at 37° C. with 1 mM (3-isobutyl-1-methylxanthine) IBMX.
Cells were then distributed in 384 black well plates containing increasing concentrations of the different peptides in a fix volume of medium (without FCS).
After an incubation of 30 min at 37° C. in an humid incubator in 5% CO2, the reaction was stopped by adding a fixed volume of a solution containing a lysis buffer and cAMP-D2 (cAMP labeled with the dye d2) and the anti cAMP antibody linked to Europium and used for cAMP detection.
Readout of the experiment were performed on a fluorimeter allowing HTRF measurement. Activation curves were generated by plotting the intracellular value of cAMP versus log 10 of the compound concentration.
The 50% activation concentration (EC50) was calculated by nonlinear regression using the sigmoidal dose-response (variable slope) equation with Prism 5 software.
Emax % is determined as the maximal intracellular value of cAMP for test compound (upper limit of cAMP vs concentration curve) divided by the maximal intracellular value of cAMP for H2-relaxin determined in the same test occasion multiplied by 100. Emax %=100×[cAMPtest cpd]/[cAMPH2-RlX]

Row | Structure (SMILES) | Emax | EC50
1 | CCCCCCCCCCCCCCCCCC(=O)N[C@@H](CCC(=O)NCCCC[C@H](NC(=O)CCOCCOCCOCCOCCOCCOCCOCCOCCOCCOCCOCCOCCNC(=O)[C@H](CCCCN)NC(=O)[C@H](CCCCN)NC(=O)[C@H](CCCNC(=N)N)NC(=O)C(C)(C)NC(=O)[C@H](CO)NC(=O)[C@H](Cc1c[nH]c2ccccc12)NC(=O)[C@@H](NC(=O)[C@H](CO)NC(=O)[C@H](CCCC)NC(=O)CNC(=O)[C@H](CCC(=O)O)NC(=O)C(C)(C)NC(=O)C(C)(C)NC(=O)[C@@H](NC(=O)[C@H](CCC(N)=O)NC(=O)[C@H](C)NC(=O)[C@H](CCCNC(=N)N)NC(=O)[C@@H](NC(=O)[C@H](CCCCN)NC(=O)[C@H](CCC(=O)O)NC(=O)[C@H](CCCNC(=N)N)NC(=O)CNC(=O)[C@H](CCC(=O)O)NC(=O)[C@H](CC(C)C)NC(C)=O)C(C)C)[C@@H](C)CC)[C@@H](C)O)C(N)=O)C(=O)O [compound 22] (Ac-LEGREKVRAQI[Aib][Aib]EG[Nle]STWS[Aib]RKK[PEG12]K([γGlu-Stearoyl])-NH2) | 104% | –
2 | CCCCCCCCCCCCCCCC(=O)N[C@@H](CCC(=O)N[C@@H](CCC(=O)N[C@@H](CCC(=O)NCCCC[C@H](NC(=O)CCOCCOCCOCCOCCOCCOCCOCCOCCOCCOCCOCCOCCNC(=O)[C@H](CCCCN)NC(=O)[C@H](CCCNC(=N)N)NC(=O)C(C)(C)NC(=O)[C@H](CO)NC(=O)[C@H](Cc1c[nH]c2ccccc12)NC(=O)[C@@H](NC(=O)[C@H](CO)NC(=O)[C@H](CCSC)NC(=O)CNC(=O)[C@H](CCC(=O)O)NC(=O)C(C)(C)NC(=O)C(C)(C)NC(=O)[C@@H](NC(=O)[C@H](CCCCNC(C)=O)NC(=O)[C@H](C)NC(=O)[C@H](CCCNC(=N)N)NC(=O)[C@@H](NC(=O)[C@H](CCCCN)NC(=O)[C@H](CCC(=O)O)NC(=O)[C@H](CCCNC(=N)N)NC(=O)CNC(=O)[C@H](CCC(=O)O)NC(=O)[C@H](CC(C)C)NC(C)=O)C(C)C)[C@@H](C)CC)[C@@H](C)O)C(N)=O)C(=O)O)C(=O)O)C(=O)O [compound 25] (Ac-LEGREKVRAK(Ac)I[Aib][Aib]EGMSTWS[Aib]RK[PEG12]K([γGlu-γGlu-γGlu-Palmitoyl])-NH2) | 95% | 1.21 nM
3 | CCCCCCCCCCCCCCCC(=O)N[C@@H](CCC(=O)N[C@@H](CCC(=O)N[C@@H](CCC(=O)NCCCC[C@H](NC(=O)CCOCCOCCOCCOCCOCCOCCOCCOCCOCCOCCOCCOCCNC(=O)[C@H](CCCCNC(C)=O)NC(=O)[C@H](CCCCN)NC(=O)[C@H](CCCNC(=N)N)NC(=O)C(C)(C)NC(=O)[C@H](CO)NC(=O)[C@H](Cc1c[nH]c2ccccc12)NC(=O)[C@@H](NC(=O)[C@H](CO)NC(=O)[C@H](CCCC)NC(=O)CNC(=O)[C@H](CCC(=O)O)NC(=O)C(C)(C)NC(=O)C(C)(C)NC(=O)[C@@H](NC(=O)[C@H](CCC(N)=O)NC(=O)C(C)(C)NC(=O)[C@H](CCCNC(=N)N)NC(=O)[C@@H](NC(=O)[C@H](CCCCN)NC(=O)[C@H](CCC(=O)O)NC(=O)[C@H](CCCNC(=N)N)NC(=O)CNC(=O)[C@H](CCC(=O)O)NC(=O)[C@H](CC(C)C)NC(C)=O)C(C)C)[C@@H](C)CC)[C@@H](C)O)C(N)=O)C(=O)O)C(=O)O)C(=O)O [compound 28] (Ac-LEGREKVR[Aib]QI[Aib][Aib]EG[Nle]STWS[Aib]RKK(Ac)[PEG12]K([γGlu-γGlu-γGlu-Palmitoyl])-NH2) | 78% | –
4 | CCCCCCCCCCCCCCCC(=O)N[C@@H](CCC(=O)N[C@@H](CCC(=O)N[C@@H](CCC(=O)NCCCC[C@H](NC(=O)CCOCCOCCOCCOCCOCCOCCOCCOCCOCCOCCOCCOCCNC(=O)[C@H](CCCCN)NC(=O)[C@H](CCCNC(=N)N)NC(=O)C(C)(C)NC(=O)[C@H](CO)NC(=O)[C@H](Cc1cccc2ccccc12)NC(=O)[C@@H](NC(=O)[C@H](CO)NC(=O)[C@H](CCCC)NC(=O)CNC(=O)[C@H](CCC(=O)O)NC(=O)C(C)(C)NC(=O)C(C)(C)NC(=O)[C@@H](NC(=O)[C@H](CCCCNC(C)=O)NC(=O)[C@H](C)NC(=O)[C@H](CCCNC(=N)N)NC(=O)[C@@H](NC(=O)[C@H](CCCCN)NC(=O)[C@H](CCC(=O)O)NC(=O)[C@H](CCCNC(=N)N)NC(=O)CNC(=O)[C@H](CCC(=O)O)NC(=O)[C@H](CC(C)C)NC(C)=O)C(C)C)[C@@H](C)CC)[C@@H](C)O)C(N)=O)C(=O)O)C(=O)O)C(=O)O [compound 29] (Ac-LEGREKVRAK(Ac)I[Aib][Aib]EG[Nle]ST[1Nal]S[Aib]RK[PEG12]K([γGlu-γGlu-γGlu-Palmitoyl])-NH2) | 78% | –
5 | CCCCCCCCCCCCCCCCCC(=O)N[C@@H](CCC(=O)N[C@@H](CCC(=O)N[C@@H](CCC(=O)NCCCC[C@H](NC(=O)CCOCCOCCOCCOCCOCCOCCOCCOCCOCCOCCOCCOCCNC(=O)[C@H](CCCCN)NC(=O)[C@H](CCCCN)NC(=O)[C@H](CCCNC(=N)N)NC(=O)C(C)(C)NC(=O)[C@H](CO)NC(=O)[C@H](Cc1c[nH]c2ccccc12)NC(=O)[C@@H](NC(=O)[C@H](CO)NC(=O)[C@H](CCCC)NC(=O)CNC(=O)[C@H](CCC(=O)O)NC(=O)C(C)(C)NC(=O)C(C)(C)NC(=O)[C@@H](NC(=O)[C@H](CCC(N)=O)NC(=O)[C@H](C)NC(=O)[C@H](CCCNC(=N)N)NC(=O)[C@@H](NC(=O)[C@H](CCCCN)NC(=O)[C@H](CCC(=O)O)NC(=O)[C@H](CCCNC(=N)N)NC(=O)CNC(=O)[C@H](CCC(=O)O)NC(=O)[C@H](CC(C)C)NC(C)=O)C(C)C)[C@@H](C)CC)[C@@H](C)O)C(N)=O)C(=O)O)C(=O)O)C(=O)O [compound 31] (Ac-LEGREKVRAQI[Aib][Aib]EG[Nle]STWS[Aib]RKK[PEG12]K([γGlu-γGlu-γGlu-Stearoyl])-NH2) | 86% | –
6 | CCCCCCCCCCCCCCCCCC(=O)N[C@@H](CCC(=O)N[C@@H](CCC(=O)N[C@@H](CCC(=O)NCCCC[C@H](NC(=O)CCOCCOCCOCCOCCOCCOCCOCCOCCOCCOCCOCCOCCNC(=O)[C@H](CCCCN)NC(=O)[C@H](CCCCN)NC(=O)[C@H](CCCNC(=N)N)NC(=O)C(C)(C)NC(=O)[C@H](CO)NC(=O)[C@H](Cc1c[nH]c2ccccc12)NC(=O)[C@@H](NC(=O)[C@H](CO)NC(=O)[C@H](CCCC)NC(=O)CNC(=O)[C@H](CCC(=O)O)NC(=O)C(C)(C)NC(=O)C(C)(C)NC(=O)[C@@H](NC(=O)[C@H](CCCCNC(C)=O)NC(=O)[C@H](C)NC(=O)[C@H](CCCNC(=N)N)NC(=O)[C@@H](NC(=O)[C@H](CCCCN)NC(=O)[C@H](CCC(=O)O)NC(=O)[C@H](CCCNC(=N)N)NC(=O)CNC(=O)[C@H](CCC(=O)O)NC(=O)[C@H](CC(C)C)NC(C)=O)C(C)C)[C@@H](C)CC)[C@@H](C)O)C(N)=O)C(=O)O)C(=O)O)C(=O)O [compound 32] (Ac-LEGREKVRAK(Ac)I[Aib][Aib]EG[Nle]STWS[Aib]RKK[PEG12]K([γGlu-γGlu-γGlu-Stearoyl])-NH2) | 96% | 1.04 nM
7 | CCCCCCCCCCCCCCCCCC(=O)N[C@@H](CCC(=O)N[C@@H](CCC(=O)N[C@@H](CCC(=O)NCCCC[C@H](NC(=O)CCOCCOCCOCCOCCOCCOCCOCCOCCOCCOCCOCCOCCNC(=O)[C@H](CCCCN)NC(=O)[C@H](CCCNC(=N)N)NC(=O)C(C)(C)NC(=O)[C@H](CO)NC(=O)[C@H](Cc1c[nH]c2ccccc12)NC(=O)[C@@H](NC(=O)[C@H](CO)NC(=O)[C@H](CCCC)NC(=O)CNC(=O)[C@H](CCC(=O)O)NC(=O)C(C)(C)NC(=O)C(C)(C)NC(=O)[C@@H](NC(=O)[C@H](CCCCNC(C)=O)NC(=O)[C@H](C)NC(=O)[C@H](CCCNC(=N)N)NC(=O)[C@@H](NC(=O)[C@H](CCCCN)NC(=O)[C@H](CCC(=O)O)NC(=O)[C@H](CCCNC(=N)N)NC(=O)CNC(=O)[C@H](CCC(=O)O)NC(=O)[C@H](CC(C)C)NC(C)=O)C(C)C)[C@@H](C)CC)[C@@H](C)O)C(N)=O)C(=O)O)C(=O)O)C(=O)O [compound 34] (Ac-LEGREKVRAK(Ac)I[Aib][Aib]EG[Nle]STWS[Aib]RK[PEG12]K([γGlu-γGlu-γGlu-Stearoyl])-NH2) | 95% | –
